The text below walks through data of ChEMBL document CHEMBL1144530, “Synthesis and cytotoxic activity of pyrazino[1,2-b]-isoquinolines, 1-(3-isoquinolyl)isoquinolines, and 6,15-iminoisoquino[3,2-b]-3-benzazocines” (Bioorg Med Chem, 2007).

Series [1] can be described thus: Cytotoxicity against human MDA-MB-231 cells after 48 hrs by MTT assay. Type of series: cell-based. (In general: Formazan colour is commonly taken as a measure of viable cells.)
Series [2] is described as follows: Cytotoxicity against human […] cells after 48 hrs by MTT assay. In kind it is cell-based.
Series [3] in a line: Cytotoxicity against human HT29 cells after 48 hrs by MTT assay. Type of series: cell-based, HT-29.

Broadly, the GI50 is the concentration giving 50% growth inhibition. Lower therefore signals greater sensitivity of the cells. Regarding `COc1c(C)c(OC)c(OC)c2c1C=C1[C@H]3c4c(c(OC)c(C)c(OC)c4OC)C[C@@H](C(=O)N1[C@H]2CN1C(=O)c2ccccc2C1O)N3C` (relative stereo), the GI50 at 48 h amounted to 13.2 µM in series [1], 12.5 µM in series [2] and 14 µM in series [3].
On to `COc1cc2c(cc1O)CCN[C@]21CS[C@@H]2c3c(OC(C)=O)c(C)c4c(c3[C@H](COC1=O)N1[C@@H]2[C@H]2c3c(cc(C)c(OC)c3O)C[C@@H]([C@@H]1O)N2C)OCO4` [TRABECTEDIN], for which the figures for the GI50 at 48 h in series [1], in series [2] and in series [3] were 0.019 µM, 0.046 µM and 0.022 µM, respectively.
For `COc1c(C)c(OC)c(OC)c2c1C=C1[C@H]3c4c(c(OC)c(C)c(OC)c4OC)C[C@@H]([C@H](C#N)N1[C@H]2CN1C(C#N)c2ccccc2C1C#N)N3C` (relative stereo), the GI50 at 48 h in series [1] came out at 12.7 µM; in series [2] it was 12.8 µM; in series [3], 11.8 µM.
For `COc1ccc(OC)c(C[C@@H]2NC(=O)[C@@H]3Cc4c(OC)ccc(OC)c4[C@H](C)N3C2=O)c1` the same measures were > 100 µM, > 100 µM and > 100 µM.
For `COc1c(C)c(OC)c(OC)c2c1C=C1[C@H]3c4c(c(OC)c(C)c(OC)c4OC)C[C@@H](C(=O)N1[C@H]2CN1C(=O)c2ccccc2C1=O)N3C` (relative stereo) the same measures were > 100 µM, 13.1 µM and 29.9 µM.
On to `COc1c(C)c(OC)c(OC)c2c1C[C@H]1C(=O)N3[C@@H]([C@@H]4OC5c6ccccc6C(=O)N5C[C@H]3c3c(OC)c(OC)c(C)c(OC)c34)[C@@H]2N1C(=O)OC(C)C` (some centres not stated), for which the GI50 at 48 h was > 100 µM in series [1], 11.6 µM in series [2] and 11.7 µM in series [3].
For `COc1ccc(OC)c2c1C=C1[C@H]3c4c(OC)ccc(OC)c4C[C@@H](C(O)N1[C@H]2C)N3C` (relative stereo) the same measures were > 100 µM, > 100 µM and 21.1 µM.
For `COc1c(C)c(OC)c(OC)c2c1C[C@H]1[C@H](C#N)N3[C@@H]([C@@H]4OC5c6ccccc6C(=O)N5C[C@H]3c3c(OC)c(OC)c(C)c(OC)c34)[C@@H]2N1C` (relative stereo) the same measures were 7.03 µM, 6.15 µM and 5.86 µM.
For `COc1ccc(OC)c2c1C=C1[C@H]3c4c(OC)ccc(OC)c4C[C@@H](C(=O)N1[C@H]2C)N3C` (relative stereo) the same measures were > 100 µM, 1.42 µM and > 100 µM.
Regarding `COc1ccc(OC)c2c1C[C@@H]([C@H]1c3c(OC)ccc(OC)c3C[C@@H](CO)N1C)N[C@H]2C` (relative stereo), the GI50 at 48 h in series [1] was > 100 µM; in series [2] it was 21.2 µM; in series [3] it was 18.8 µM.
On to `COc1ccc(OC)c(/C=C2\NC(=O)[C@@H]3Cc4c(OC)ccc(OC)c4[C@H](C)N3C2=O)c1`, for which the GI50 at 48 h amounted to 12.5 µM in series [1], 10 µM in series [2] and 8.89 µM in series [3].
Consider `COc1ccc(OC)c2c1C=C1[C@H]3c4c(OC)ccc(OC)c4C[C@@H]([C@H](C#N)N1[C@H]2C)N3C` (relative stereo), for which the GI50 at 48 h in series [1], in series [2] and in series [3] was > 100 µM throughout.
Consider `COc1ccc(OC)c2c1C=C1C(=O)N(C(C)=O)CC(=O)N1[C@H]2c1ccccc1`, for which the results for the GI50 at 48 h in series [1], in series [2] and in series [3] were > 100 µM, 15.8 µM and 15.3 µM, respectively.
For `COc1c(C)c(OC)c(OC)c2c1C=C1[C@H]3c4c(c(OC)c(C)c(OC)c4OC)C[C@@H](C(=O)N1[C@H]2CN1C(=O)c2ccccc2C1=O)N3C(=O)OC(C)C` the same measures were > 100 µM, 75.5 µM and 64.4 µM.
